For one test, the system named is MCF7. The experiment in a line: Cytotoxicity against human MCF7 cells assessed as decrease in cell viability after 4 days by MTT assay. The note with it: MCF7, 96 h. In kind it is functional, cell-based. In general terms: Tetrazolium assays rely on reduction of a dye to a coloured formazan, in cell work by metabolically active cells.
For another test, the system named is A549. The experiment in a line: Cytotoxicity against human A549 cells assessed as decrease in cell viability after 4 days by MTT assay. The note with it: A549, 96 h. In kind it is functional, cell-based.
For a further test, the system named is SMMC-7721. The experiment in a line: Cytotoxicity against human SMMC7721 cells assessed as decrease in cell viability after 4 days by MTT assay. Type of test: functional, cell-based. The conditions noted are these: SMMC-7721, 96 h.
The subject of test [1] is SW480. Description: Potency index, ratio of cisplatin IC50 to compound IC50 for human SW480 cells. Type of test: functional.
The test system of test [2] is SW480. Description: Cytotoxicity against human SW480 cells assessed as decrease in cell viability after 4 days by MTT assay. Type of test: functional, cell-based. The conditions noted are these: SW480, 96 h.
The next test relates to HL-60. The experiment in a line: Cytotoxicity against human HL60 cells assessed as decrease in cell viability after 4 days by MTT assay. In kind it is functional, cell-based. The conditions noted are these: HL-60, 96 h.

Where only a bound is given, the exact number is not on record here.

Here are results for 30 compounds from ChEMBL document CHEMBL4219271, “Synthesis and anti-proliferative activity of allogibberic acid derivatives containing 1,2,3-triazole pharmacophore” (Bioorg Med Chem Lett, 2018).

What is called IC50 is the midpoint of a concentration-inhibition curve.

In the case of `C=C1C(=O)[C@]23C[C@@]1(O)CC[C@H]2c1ccc(O)c(C)c1[C@@H]3Cn1cc(-c2ccccc2)nn1`, the IC50 in the test with MCF7 was found to be 1.74 µM; with A549, 1.16 µM; in the test with SMMC-7721 it was 1.32 µM; in the test with SW480 [2], 0.26 µM; with HL-60, 0.75 µM. For the same compound, the “Ratio IC50” value in the test with SW480 [1] was 31.
As for `C=C1C(=O)[C@]23C[C@@]1(O)CC[C@H]2c1ccc(O)c(C)c1[C@@H]3Cn1cc(-c2ccc(OC)cc2)nn1`, the IC50 in the test with MCF7 amounted to 1.71 µM; in the test on A549 it was 1.25 µM; with SMMC-7721 it was 0.86 µM; in the test with SW480 [2], 0.22 µM; in the test with HL-60, 1.15 µM. In the test with SW480 [1], the “Ratio IC50” value is recorded as 39.
As to `C=C1C(=O)[C@]23C[C@@]1(O)CC[C@H]2c1ccc(O)c(C)c1[C@@H]3Cn1cc(-c2ccc(Br)cc2)nn1`, the half-inhibitory concentration (IC50) is 0.27 µM with MCF7; 1.14 µM in the test on A549; 1.3 µM in the test on SMMC-7721; 0.31 µM with SW480 [2]; 0.56 µM with HL-60. Also, in the test on SW480 [1], the “Ratio IC50” value was 36.
As for `C=C1C(=O)[C@]23C[C@@]1(O)CC[C@H]2c1ccc(O)c(C)c1[C@@H]3Cn1cc(-c2ccc(C(F)(F)F)cc2)nn1`, the IC50 came out at 1.84 µM in the test on MCF7; 1.11 µM with A549; 1.44 µM in the test on SMMC-7721; 0.37 µM in the test on SW480 [2]; 0.72 µM in the test with HL-60. The “Ratio IC50” value with SW480 [1] is on record as 22.
As to `C=C1C[C@]23C[C@@]1(O)CC[C@H]2c1cc(Br)c(O)c(C)c1[C@@H]3Cn1cc(-c2ccc(Cl)cc2)nn1`, the IC50 with MCF7 stood at 10.2 µM; in the test with A549 it was 10.5 µM; in the test with SMMC-7721, 19.1 µM; in the test on SW480 [2] it was 18 µM; in the test on HL-60 it was 5.59 µM.
The matching figures for `Cc1ccc(S(=O)(=O)Oc2ccc3c(c2C)[C@H](Cn2cc(-c4ccc(Br)cc4)nn2)[C@@]24CC(=O)[C@@](C)(CC[C@@H]32)C4)cc1`: over 20 µM, over 20 µM, over 20 µM, over 20 µM and over 20 µM.
The matching figures for `Cc1c(O)ccc2c1[C@H](Cn1cc(-c3ccccn3)nn1)[C@@]13CC(=O)[C@@](C)(CC[C@@H]21)C3`: over 20 µM, over 20 µM, over 20 µM, over 20 µM and over 20 µM.
On to `C=C1C(=O)[C@]23C[C@@]1(O)CC[C@H]2c1ccc(O)c(C)c1[C@@H]3Cn1cc(-c2ccccn2)nn1`, for which the IC50 is 2.24 µM in the test on MCF7; 1.57 µM in the test with A549; 1.27 µM in the test with SMMC-7721; 0.41 µM in the test with SW480 [2]; 1.97 µM in the test on HL-60. For the same compound, the “Ratio IC50” value in the test on SW480 [1] stood at 20.
For the compound `C=C1C[C@]23C[C@@]1(O)CC[C@H]2c1ccc(OS(=O)(=O)c2ccc(C)cc2)c(C)c1[C@@H]3Cn1cc(-c2ccc(F)cc2)nn1`, the IC50 with MCF7, in the test on A549, in the test on SMMC-7721, with SW480 [2] and with HL-60 was over 20 µM throughout.
Regarding `Cc1c(O)ccc2c1[C@H](Cn1cc(-c3ccc(Cl)cc3)nn1)[C@@]13CC(=O)[C@@](C)(CC[C@@H]21)C3`, the IC50 with MCF7, in the test with A549, with SMMC-7721, in the test with SW480 [2] and with HL-60 was over 20 µM throughout.
`C=C1C[C@]23C[C@@]1(O)CC[C@H]2c1ccc(O)c(C)c1[C@@H]3Cn1cc(-c2ccccn2)nn1`: the IC50 in the test on MCF7, with A549, in the test on SMMC-7721, in the test on SW480 [2] and with HL-60 was over 20 µM throughout.
For `Cc1ccc(S(=O)(=O)Oc2ccc3c(c2C)[C@H](Cn2cc(-c4ccc(Cl)cc4)nn2)[C@@]24CC(=O)[C@@](C)(CC[C@@H]32)C4)cc1`, the half-inhibitory concentration (IC50) in the test with MCF7, in the test on A549, with SMMC-7721, in the test on SW480 [2] and in the test on HL-60 was over 20 µM each time.
For the compound `C=C1C[C@]23C[C@@]1(O)CC[C@@H]2c1cccc(C)c1[C@@H]3Cn1cc(-c2ccc(F)cc2)nn1`, the IC50 in the test on MCF7, with A549, with SMMC-7721, in the test with SW480 [2] and in the test on HL-60 was over 20 µM throughout.
In the case of `C=C1C[C@]23C[C@@]1(O)CC[C@H]2c1ccc(O)c(C)c1[C@@H]3Cn1cc(-c2ccc(Cl)cc2)nn1`, the half-maximal inhibitory concentration (IC50) in the test with MCF7, in the test with A549, in the test on SMMC-7721, with SW480 [2] and with HL-60 was over 20 µM each time.
Consider `C=C1C[C@]23C[C@@]1(O)CC[C@H]2c1cc(Br)c(O)c(C)c1[C@@H]3Cn1cc(-c2ccc(F)cc2)nn1`, for which the IC50 with MCF7 is 19.2 µM; in the test on A549, 17.9 µM; in the test on SMMC-7721, over 20 µM; with SW480 [2] it was over 20 µM; in the test with HL-60 it was 6.6 µM.
Regarding `C=C1C[C@]23C[C@@]1(O)CC[C@H]2c1ccc(OS(=O)(=O)c2ccc(C)cc2)c(C)c1[C@@H]3Cn1cc(-c2ccc(C(F)(F)F)cc2)nn1`, the IC50 in the test with MCF7, in the test on A549, in the test on SMMC-7721, in the test with SW480 [2] and in the test on HL-60 was over 20 µM throughout.
In the case of `C=C1C[C@]23C[C@@]1(O)CC[C@H]2c1cc(Br)c(O)c(C)c1[C@@H]3Cn1cc(-c2ccccc2)nn1`, the IC50 in the test with MCF7, in the test with A549, with SMMC-7721, in the test on SW480 [2] and in the test with HL-60 was over 20 µM in each case.
For `Cc1c(O)ccc2c1[C@H](Cn1cc(-c3ccc(C(F)(F)F)cc3)nn1)[C@@]13CC(=O)[C@@](C)(CC[C@@H]21)C3`, the concentration for half-maximal inhibition (IC50) in the test with MCF7, with A549, in the test on SMMC-7721, with SW480 [2] and in the test with HL-60 was over 20 µM each time.
As for `Cc1ccc(-c2cn(C[C@H]3c4c(ccc(OS(=O)(=O)c5ccc(C)cc5)c4C)[C@@H]4CC[C@@]5(C)C[C@]43CC5=O)nn2)cc1`, the IC50 in the test on MCF7, with A549, with SMMC-7721, in the test with SW480 [2] and in the test on HL-60 was over 20 µM throughout.
On to `C=C1C(=O)[C@]23C[C@@]1(O)CC[C@H]2c1ccc(O)c(C)c1[C@@H]3Cn1cc(-c2ccc(Cl)cc2)nn1`, for which the IC50 came out at 2.47 µM in the test with MCF7; 0.64 µM in the test on A549; 0.67 µM in the test on SMMC-7721; 0.28 µM in the test on SW480 [2]; 0.69 µM in the test with HL-60. Also, the “Ratio IC50” value in the test on SW480 [1] turned out to be 29.
For `Cc1ccc(S(=O)(=O)Oc2ccc3c(c2C)[C@H](Cn2cc(-c4ccccc4)nn2)[C@@]24CC(=O)[C@@](C)(CC[C@@H]32)C4)cc1`, the IC50 in the test with MCF7, in the test on A549, in the test with SMMC-7721, in the test with SW480 [2] and with HL-60 was over 20 µM in each case.
Regarding `C=C1C[C@]23C[C@@]1(O)CC[C@@H]2c1cccc(C)c1[C@@H]3Cn1cc(-c2ccc(OC)cc2)nn1`, the IC50 in the test on MCF7, in the test on A549, in the test with SMMC-7721, in the test on SW480 [2] and in the test on HL-60 was over 20 µM throughout.
In the case of `C=C1C[C@]23C[C@@]1(O)CC[C@H]2c1ccc(O)c(C)c1[C@@H]3Cn1cc(-c2ccc(C(F)(F)F)cc2)nn1`, the half-maximal inhibitory concentration (IC50) was 12.4 µM with MCF7; 10.4 µM in the test on A549; over 20 µM with SMMC-7721; over 20 µM with SW480 [2]; 8.95 µM in the test with HL-60.
As to `C=C1C[C@]23C[C@@]1(O)CC[C@H]2c1ccc(O)c(C)c1[C@@H]3Cn1cc(-c2ccc(C)cc2)nn1`, the IC50 in the test with MCF7, in the test with A549, with SMMC-7721, in the test on SW480 [2] and with HL-60 was over 20 µM in each case.
Take `C=C1C[C@]23C[C@@]1(O)CC[C@H]2c1ccc(O)c(C)c1[C@@H]3Cn1cc(-c2ccccc2)nn1`: the IC50 in the test with MCF7, with A549, in the test with SMMC-7721, with SW480 [2] and in the test with HL-60 was over 20 µM in each case.
In the case of `C=C1C[C@]23C[C@@]1(O)CC[C@@H]2c1cccc(C)c1[C@@H]3Cn1cc(-c2ccccn2)nn1`, the IC50 in the test on MCF7, in the test on A549, with SMMC-7721, in the test with SW480 [2] and in the test on HL-60 was over 20 µM each time.
`Cc1ccc(S(=O)(=O)Oc2ccc3c(c2C)[C@H](Cn2cc(-c4ccccn4)nn2)[C@@]24CC(=O)[C@@](C)(CC[C@@H]32)C4)cc1`: the IC50 with MCF7, with A549, in the test on SMMC-7721, in the test on SW480 [2] and in the test on HL-60 was over 20 µM in each case.
As for `C=C1C[C@]23C[C@@]1(O)CC[C@@H]2c1cccc(C)c1[C@@H]3Cn1cc(-c2ccc(Br)cc2)nn1`, the IC50 with MCF7, in the test with A549, in the test on SMMC-7721, in the test with SW480 [2] and in the test on HL-60 was over 20 µM in each case.
As for `CC(=O)O[C@H]1C(=O)[C@@]2(C)[C@H]([C@H](OC(=O)c3ccccc3)[C@]3(O)C[C@H](OC(=O)[C@H](O)[C@@H](NC(=O)c4ccccc4)c4ccccc4)C(C)=C1C3(C)C)[C@]1(OC(C)=O)CO[C@@H]1C[C@@H]2O` [PACLITAXEL], the concentration for half-maximal inhibition (IC50) in the test with MCF7, in the test on A549, in the test on SMMC-7721, in the test on SW480 [2] and in the test with HL-60 was under 0.008 µM throughout.
On to `COc1ccc(-c2cn(C[C@H]3c4c(ccc(O)c4C)[C@@H]4CC[C@@]5(C)C[C@]43CC5=O)nn2)cc1`, for which the IC50 with MCF7, in the test on A549, with SMMC-7721, in the test with SW480 [2] and in the test on HL-60 was over 20 µM throughout.
